According to US11066414B2, “Cot modulators and methods of use thereof” (Gilead Sciences, Inc., priority 2015, dated 2021):
Like-named read-outs stand apart in the source and are kept apart here.

What was measured:
[1] = biological target: Human Cot (Homo sapiens (Human), UniProt P41279); assay: High Throughput Cot Biochemical Assay
Experimental: Human Cot enzyme activity was measured using KinEASE (Cisbio), a time-resolved fluorescence resonance energy transfer (TR-FRET) immunoassay. In this assay, Cot-catalyzes the phosporylation of a XL665-labeled peptide substrate. Europium conjugated phospho-tyrosine specific antibody binds the resulting phosphorylated peptide. Formation of phosphorylated peptide is quantified by TR-FRET with Europium as the donor and XL665 the acceptor in a 2-step endpoint assay. […] In brief, test compounds serially diluted in DMSO were delivered into Proxy white, low volume, 384 well plates using the Echo 550 acoustic liquid dispenser (Labcyte®). Cot enzyme and substrates were dispensed into assay plates using a Multi-Flo (Bio-Tek Instruments). The standard 5 μL reaction mixture contained 400 μM ATP, 1 μM STK3 peptide, 5 nM of Cot in reaction buffer (10 mM MOPS, pH 7.0, 0.02% NaN3, 0.5 mg/mL BSA, 10 mM MgOAc, 1 mM DTT, 0.025% NP-40, 1.5% glycerol) and 0.1% DMSO.

[2] = system: TNFα; assay: Cot Monocyte TNFα Cell Based Assay
[3] = IC50 HTRF, Cot HTRF (TR-FRET) biochemical assay
[4] = Homo sapiens, Monocyte, read-out: EC50 TNF, LPS-stimulated human monocytes, TNFα
[5] = read-out: IC50 HTRF, Cot HTRF (TR-FRET KinEASE) biochemical assay, 400 μM ATP
[6] = read-out: EC50 TNF, LPS-stimulated human monocytes, TNFα TR-FRET
[7] = read-out: IC50 HTRF, Cot HTRF (TR-FRET) biochemical assay
[8] = IC50 HTRF, Cot HTRF (TR-FRET KinEASE) biochemical assay, 400 μM ATP
[9] = Homo sapiens, Monocyte, read-out: EC50 TNF, LPS-stimulated human monocytes, TNFα TR-FRET

Human Cot, sequence (P41279 30-397): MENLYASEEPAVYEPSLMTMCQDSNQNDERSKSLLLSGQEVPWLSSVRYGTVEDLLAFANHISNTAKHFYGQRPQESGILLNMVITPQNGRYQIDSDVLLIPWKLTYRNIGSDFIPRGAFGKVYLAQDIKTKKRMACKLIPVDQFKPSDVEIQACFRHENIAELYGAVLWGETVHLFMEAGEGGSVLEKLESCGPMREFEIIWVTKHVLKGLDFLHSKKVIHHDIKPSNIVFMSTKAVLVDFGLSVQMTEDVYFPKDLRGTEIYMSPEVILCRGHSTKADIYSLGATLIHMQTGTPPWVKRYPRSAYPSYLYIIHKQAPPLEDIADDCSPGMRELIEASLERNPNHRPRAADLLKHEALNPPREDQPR

SMILES	IC50 [1, 3]	EC50 [2, 4]	IC50 [1, 8]	EC50 [2, 9]	also measured
CCN1CCC(n2cc([C@@H](Nc3cc(Cl)c4ncc(C#N)c(Nc5ccc(F)c(Cl)c5)c4c3)c3ccc(Cl)nc3)nn2)CC1 [Example 379, (S)-8-chloro-4-((3-chloro-4-fluoro-phenyl)amino)-6-(((6-chloropyridin-3-yl)(1-(1-ethylpiperidin-4-yl)-1H-1,2,3-triazol-4-yl)methyl)amino)quinoline-3-carbonitrile]	6 nM	179 nM	–	–	–
COc1nccc2c([C@H](Nc3cc(C#N)c4ncc(C#N)c(NCC(C)(C)C(F)(F)F)c4c3)c3cn(C45CC(C4)C5)nn3)cccc12 [Example 820, (S)-6-(((1-(bicyclo[1.1.1]pentan-1-yl)-1H-1,2,3-triazol-4-yl)(1-methoxylsoquinolin-5-yl)methyl)amino)-4-((3,3,3-trifluoro-2,2-dimethylpropyl)amino)quinoline-3,8-dicarbonitrile]	–	–	–	–	IC50 [1, 5]: 3 nM; EC50 [2, 6]: 33 nM
COc1nccc2c([C@H](Nc3cc(C#N)c4ncc(C#N)c(NCC(C)(C)C)c4c3)c3cn([C@@H](C)CF)nn3)cccc12 [Example 824, 6-(((S)-(1-((S)-1-fluoropropan-2-yl)-1H-1,2,3-triazol-4-yl)(1-methoxylsoquinolin-5-yl)methyl)amino)-4-(neopentylamino)quinoline-3,8-dicarbonitrile]	–	–	–	–	IC50 [1, 5]: 5 nM; EC50 [2, 6]: 59 nM
CC1(C)CC(n2cc([C@@H](Nc3cc(Cl)c4ncc(C#N)c(Nc5ccc(F)c(Cl)c5)c4c3)c3cccnc3)nn2)CC(C)(C)N1 [Example 309]	–	–	–	–	IC50 [1, 7]: 8 nM; EC50 ([2]; read-out: EC50 TNF, LPS-stimulated human monocytes, TNFα): 181 nM
Cc1nc([C@H](Nc2cc(Cl)c3ncc(C#N)c(NCC(C)(C)C)c3c2)c2cn(C3(C(F)F)CC3)nn2)c(C)o1 [Example 639, (S)-8-chloro-6-(((1-(1-(difluoromethyl)cyclopropyl)-1H-1,2,3-triazol-4-yl)(2,5-dimethyloxazol-4-yl)methyl)amino)-4-(neopentylamino)quinoline-3-carbonitrile]	58 nM	806 nM	–	–	–
COc1c([C@@H](Nc2cc(C#N)c3ncc(C#N)c(NCC(C)(C)C)c3c2)c2ccc(F)nc2C)nnn1C12CC(C1)C2 [Example 868, (S)-6-(((1-(bicyclo[1.1,1]pentan-1-yl)-5-methoxy-1H-1,2,3-triazol-4-yl)(6-fluoro-2-methylpyridin-3-yl)methyl)amino)-4-(neopentylamino)quinoline-3,8-dicarbonitrile]	–	–	2 nM	70 nM	–
Cc1nc(F)ccc1[C@H](Nc1cc(Cl)c2ncc(C#N)c(NCC(C)(C)C)c2c1)c1nnn(C2(C3CC3)CC2)c1F [Example 949, (S)-6-(((1-([1,1′-bi(cyclopropan)]-1-yl)-5-fluoro-1H-1,2,3-triazol-4-yl)(6-fluoro-2-methylpyridin-3-yl)methyl)amino)-8-chloro-4-(neopentylamino)quinoline-3-carbonitrile]	–	–	4 nM	34 nM	–
CCc1nc(F)ccc1[C@H](Nc1cc(C#N)c2ncc(C#N)c(NCC(C)(C)C)c2c1)c1cn(C2(C(F)F)CC2)nn1 [Example 597, (S)-6-(((1-(1-(difluoromethyl)cyclopropyl)-1H-1,2,3-triazol-4-yl)(2-ethyl-6-fluoropyridin-3-yl)methyl)amino)-4-(neopentylamino)quinoline-3,8-dicarbonitrile]	3 nM	150 nM	–	–	–
Cc1nc(F)ccc1[C@H](Nc1cc(C#N)c2ncc(C#N)c(NCC(C)(C)C)c2c1)c1cn(C(C)(C)C(F)(F)F)nn1 [Example 591, (S)-6-(((6-fluoro-2-methylpyridin-3-yl)(1-(1,1,1-trifluoro-2-methylpropan-2-yl)-1H-1,2,3-triazol-4-yl)methyl)amino)-4-(neopentylamino)quinoline-3,8-dicarbonitrile]	5 nM	106 nM	–	–	–
CC1(n2cc([C@@H](Nc3cc(C#N)c4ncc(C#N)c(NCC(C)(C)C(F)(F)F)c4c3)c3ccc(F)c4ncccc34)nn2)CC1 [Example 813, (S)-6-(((8-fluoroquinolin-5-yl)(1-(1-methylcyclopropyl)-1H-1,2,3-triazol-4-yl)methyl)amino)-4-((3,3,3-trifluoro-2,2-dimethylpropyl)amino)quinoline-3,8-dicarbonitrile]	–	–	2 nM	24 nM	–
Cc1nc(F)ccc1[C@H](Nc1cc(C#N)c2ncc(C#N)c(NCC(C)(C)C)c2c1)c1cn(C2(C(C)(C)C)CC2)nn1 [Example 860, (S)-6-(((1-(1-(tert-butyl)cyclopropyl)-1H-1,2,3-triazol-4-yl)(6-fluoro-2-methylpyridin-3-yl)methyl)amino)-4-(neopentylamino)quinoline-3,8-dicarbonitrile]	–	–	3 nM	31 nM	–
N#Cc1cnc2c(Cl)cc(NC(c3cccnc3)c3cn(C4CCNCC4)nn3)cc2c1Nc1ccc(F)c(Cl)c1 (centres unmarked) [Example 405, 8-chloro-4-((3-chloro-4-fluoro-phenyl)amino)-6-(((1-(piperidin-4-yl)-1H-1,2,3-triazol-4-yl)(pyridin-3-yl)methyl)amino)quinoline-3-carbonitrile]	2 nM	1040 nM	–	–	–
Cc1nc(F)ccc1[C@H](Nc1cc(Cl)c2ncc(C#N)c(NCC(C)(C)C(F)(F)F)c2c1)c1cn(C2(C3CC3)CC2)nn1 [Example 763, (S)-6-(((1-([1,1′-bi(cyclopropan)]-1-yl)-1H-1,2,3-triazol-4-yl)(6-fluoro-2-methylpyridin-3-yl)methyl)amino)-8-chloro-4-((3,3,3-trifluoro-2,2-dimethylpropyl)amino)-quinoline-3-carbonitrile]	3 nM	40 nM	–	–	–
Cc1nc(F)ccc1[C@H](Nc1cc(C#N)c2ncc(C#N)c(NCC34CC(C3)C4)c2c1)c1cn(C2(C(F)F)CC2)nn1 [Example 849, (S)-4-((bicyclo[1.1.1]pentan-1-ylmethyl)amino)-6-(((1-(1-(difluoromethyl)-cyclopropyl)-1H-1,2,3-triazol-4-yl)(6-fluoro-2-methylpyridin-3-yl)methyl)amino)quinoline-3,8-dicarbonitrile]	–	–	16 nM	261 nM	–
COc1c([C@@H](Nc2cc(Cl)c3ncc(C#N)c(NCC(C)(C)C)c3c2)c2ccc(F)nc2C)nnn1C12CC(C1)C2 [Example 968, (S)-6-(((1-(bicyclo[1.1.1]pentan-1-yl)-5-methoxy-1H-1,2,3-triazol-4-yl)(6-fluoro-2-methylpyridin-3-yl)methyl)amino)-8-chloro-4-(neopentylamino)quinoline-3-carbonitrile]	–	–	2 nM	94 nM	–
Cc1nc(F)ccc1[C@H](Nc1cc(Cl)c2ncc(C#N)c(Nc3cnc(F)c(F)c3)c2c1)c1nnn(C2(C(F)F)CC2)c1F [Example 953, (S)-8-chloro-6-(((1-(1-(difluoromethyl)cyclopropyl)-5-fluoro-1H-1,2,3-triazol-4-yl)(6-fluoro-2-methylpyridin-3-yl)methyl)amino)-4-((5,6-difluoropyridin-3-yl)amino)quinoline-3-carbonitrile]	–	–	36 nM	353 nM	–
Cc1ncccc1[C@H](Nc1cc(Cl)c2ncc(C#N)c(Nc3cccc(Cl)c3F)c2c1)c1cn(C2CCN(C(C)(C)C)CC2)nn1 [Example 247, (S)-6-(((1-(1-(tert-butyl)piperidin-4-yl)-1H-1,2,3-triazol-4-yl)(2-methylpyridin-3-yl)methyl)amino)-8-chloro-4-((3-chloro-2-fluorophenyl)amino)quinoline-3-carbonitrile]	–	102 nM	–	–	IC50 [1, 7]: 2 nM
CCc1ncccc1[C@H](Nc1cc(Cl)c2ncc(C#N)c(NCC(C)(C)C)c2c1)c1cn(C2(C(F)(F)F)CC2)nn1 [Example 600, (S)-8-chloro-6-(((2-ethylpyridin-3-yl)(1-(1-(trifluoromethyl)cyclopropyl)-1H-1,2,3-triazol-4-yl)methyl)amino)-4-(neopentylamino)quinoline-3-carbonitrile]	5 nM	113 nM	–	–	–
N#CCC[C@@H](Nc1c(C#N)cnc2c(C#N)cc(N[C@H](c3cn(C4CC4)nn3)c3csc4c3CCN(C3COC3)C4)cc12)c1ccccc1 [Example 414, 4-(((R)-3-cyano-1-phenylpropyl)amino)-6-(((S)-(1-cyclopropyl-1H-1,2,3-triazol-4-yl)(6-(oxetan-3-yl)-4,5,6,7-tetrahydro-thieno[2,3-c]pyridin-3-yl)methyl)amino)-quinoline-3,8-dicarbonitrile]	1 nM	35 nM	–	–	–
CC(C)(C)CNc1c(C#N)cnc2c(C#N)cc(N[C@H](c3cn(C4(C#N)CC4)nn3)c3cccc4ncccc34)cc12 [Example 577, (S)-6-(((1-(1-cyanocyclopropyl)-1H-1,2,3-triazol-4-yl)(quinolin-5-yl)methyl)amino)-4-(neopentylamino)-quinoline-3,8-dicarbonitrile]	1 nM	49 nM	–	–	–
[2H]C(Nc1cc(Cl)c2ncc(C#N)c(N[C@H](CCO)c3ccccc3)c2c1)(c1ccc(F)nc1)c1cn(C2CC2)nn1 (stereo partly drawn) [Example 121, 8-chloro-6-(((1-cyclopropyl-1H-1,2,3-triazol-4-yl)(6-fluoropyridin-3-yl)methyl-d)amino)-4-(((R)-3-hydroxy-1-phenylpropyl)amino)quinoline-3-carbonitrile]	7 nM	171 nM	–	–	–
COc1ccc2c([C@H](Nc3cc(C#N)c4ncc(C#N)c(NCC(C)(C)C)c4c3)c3cn(C4(C(F)(F)F)CC4)nn3)cccc2n1 [Example 811, (S)-6-(((2-methoxyquinolin-5-yl)(1-(1-(trifluoromethyl)cyclopropyl)-1H-1,2,3-triazol-4-yl)methyl)amino)-4-(neopentylamino)quinoline-3,8-dicarbonitrile]	–	–	11 nM	333 nM	–
